The subject of the test is normal human dermal fibroblasts stimulated with hIL-1α. The test can be described thus: Human fibroblast IL-6 release assay, hIL-1α stimulated. It counts as cell-based. On the set-up: IL-1alpha (mean, SD): mean readout (IL-6 release): unit not given here. As to conditions: Figure 3c; for Mean OD (OD 450nm): compound 1 nM; for IL-1alpha (mean, SD): mean readout (IL-6 release): compound @ 1nM. How it is done: We used HEK-Blue™ IL-1β cells that respond specifically to IL-1 (# hkb-il1b, InvivoGen). These cells can detect IL-1α and IL-1β, as these cytokines bind to the same receptor, IL-1R1. They express a Seap reporter gene under the control of the IFN-β minimal promoter fused to five NF-kappaB and five AP-1 binding sites. Thirty microliters (300,000 cells/ml) per well of a 384-well plate were plated overnight. Cells were then stimulated with graded concentrations of cytokines (hIL-1α or hIL-1β) in the absence or presence of canakinumab (Ilaris®, ILARI LYVI 150MG 22GLW.012, batch U003 0409)[22], anakinra (Kineret®, 100 mg/0.67 ml injectable solution, Sobi)[23], or compound (S)-2 (compounds were pre-mixed for 1 h with the cytokine prior to addition to cells) and further incubated overnight before assessment of Seap activity.
Normal human dermal fibroblasts (NHDF) from Clonetics^TM (LONZA, Cat # CC-2509 (NHDF-Neo), Lot # 0000234242, used at passage ≤14) were seeded at a density of 5000 cells/well in 100 μL of culture medium using 96-well plates (flat bottom, TCT). Treatment with cytokines/compounds was performed as described above. Cells were incubated for another 6 h and were subsequently spun down (320g/3 min). IL-6 was measured in the supernatant by ELISA (BioLegend, # 430503) or HTRF (Cisbio, #62HIL06PEH).

Regarding “canakinumab: anti-hIL-1β antibody [reference compound]”, the “Mean OD (OD 450nm)” value by setting is: (hu IL-1A 0 pg/mL) 0.041; (hu IL-1A 40 pg/mL) 0.388; (hu IL-1A 80 pg/mL) 0.589; (hu IL-1A 120 pg/mL) 0.693; (hu IL-1A 160 pg/mL) 0.774; (hu IL-1A 200 pg/mL) 0.785. The “IL-1alpha (mean, SD): mean readout (IL-6 release)” value is reported as 0 (hu IL-1a 0 pg/mL); 2114.2 (hu IL-1a 40 pg/mL); 3604.7 (hu IL-1a 80 pg/mL); 4369.8 (hu IL-1a 120 pg/mL); 4969.2 (hu IL-1a 160 pg/mL); 5051.1 (hu IL-1a 200 pg/mL).

Source of the values: PMC10484922, “Discovery of a selective and biologically active low-molecular weight antagonist of human interleukin-1β” (Nature Communications, 2023).
